What was measured:
Assay in all cases: relative viability (nuclei count vs DMSO), 5 days (fraction); higher = more cells survive
Everolimus + Luminespib = compound: CO[C@H]1C[C@@H]2CC[C@@H](C)[C@@](O)(O2)C(=O)C(=O)N2CCCC[C@H]2C(=O)O[C@H]([C@H](C)C[C@@H]2CC[C@@H](OCCO)[C@H](OC)C2)CC(=O)[C@H](C)/C=C(\C)[C@@H](O)[C@@H](OC)C(=O)[C@H](C)C[C@H](C)/C=C/C=C/C=C/1C [Everolimus] + CCNC(=O)c1noc(-c2cc(C(C)C)c(O)cc2O)c1-c1ccc(CN2CCOCC2)cc1 [Luminespib] (partner 0.01 µM)
Procedure, shortened: (§1)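 Values are medians from duplicate plates. Each reflects relative viability, defined as the nuclei count of treated wells over that of vehicle wells. Lung cancer cell lines in 1536-well plates were pin-tool dosed one day after seeding with one drug alone or with a fixed anchor-drug dose plus five library-drug doses (not always all listed) in √10 steps, then fixed, stained and imaged at 4× after 5 days.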

Everolimus + Foretinib = compound: CO[C@H]1C[C@@H]2CC[C@@H](C)[C@@](O)(O2)C(=O)C(=O)N2CCCC[C@H]2C(=O)O[C@H]([C@H](C)C[C@@H]2CC[C@@H](OCCO)[C@H](OC)C2)CC(=O)[C@H](C)/C=C(\C)[C@@H](O)[C@@H](OC)C(=O)[C@H](C)C[C@H](C)/C=C/C=C/C=C/1C [Everolimus] + COc1cc2c(Oc3ccc(NC(=O)C4(C(=O)Nc5ccc(F)cc5)CC4)cc3F)ccnc2cc1OCCCN1CCOCC1 [Foretinib] (partner 0.25 µM)
Procedure, shortened: as §1

Everolimus + Tozasertib = compound: CO[C@H]1C[C@@H]2CC[C@@H](C)[C@@](O)(O2)C(=O)C(=O)N2CCCC[C@H]2C(=O)O[C@H]([C@H](C)C[C@@H]2CC[C@@H](OCCO)[C@H](OC)C2)CC(=O)[C@H](C)/C=C(\C)[C@@H](O)[C@@H](OC)C(=O)[C@H](C)C[C@H](C)/C=C/C=C/C=C/1C [Everolimus] + Cc1cc(Nc2cc(N3CCN(C)CC3)nc(Sc3ccc(NC(=O)C4CC4)cc3)n2)n[nH]1 [Tozasertib] (partner 0.1 µM)
Procedure, shortened: as §1

Everolimus + AZD7762 = compound: CO[C@H]1C[C@@H]2CC[C@@H](C)[C@@](O)(O2)C(=O)C(=O)N2CCCC[C@H]2C(=O)O[C@H]([C@H](C)C[C@@H]2CC[C@@H](OCCO)[C@H](OC)C2)CC(=O)[C@H](C)/C=C(\C)[C@@H](O)[C@@H](OC)C(=O)[C@H](C)C[C@H](C)/C=C/C=C/C=C/1C [Everolimus] + NC(=O)Nc1cc(-c2cccc(F)c2)sc1C(=O)N[C@H]1CCCNC1 [AZD7762] (partner 0.2 µM)
Procedure, shortened: as §1

| Cell Line | relative viability (Everolimus + Luminespib; first compound 0.01 µM) | relative viability (Everolimus + Luminespib; first compound 0.03162 µM) | relative viability (Everolimus + Luminespib; first compound 0.1 µM) | relative viability (Everolimus + Luminespib; first compound 0.3162 µM) | relative viability (Everolimus + Luminespib; first compound 1 µM) | relative viability (Everolimus + Foretinib; first compound 0.01 µM) | relative viability (Everolimus + Foretinib; first compound 0.03162 µM) | relative viability (Everolimus + Foretinib; first compound 0.1 µM) | relative viability (Everolimus + Foretinib; first compound 0.3162 µM) | relative viability (Everolimus + Foretinib; first compound 1 µM) | relative viability (Everolimus + Tozasertib; first compound 0.01 µM) | relative viability (Everolimus + Tozasertib; first compound 0.03162 µM) | relative viability (Everolimus + Tozasertib; first compound 0.1 µM) | relative viability (Everolimus + Tozasertib; first compound 0.3162 µM) | relative viability (Everolimus + Tozasertib; first compound 1 µM) | relative viability (Everolimus + AZD7762; first compound 0.3162 µM) | relative viability (Everolimus + AZD7762; first compound 1 µM) | relative viability (Everolimus + AZD7762; first compound 0.01 µM) | relative viability (Everolimus + AZD7762; first compound 0.03162 µM) | relative viability (Everolimus + AZD7762; first compound 0.1 µM) |
| --- | --- | --- | --- | --- | --- | --- | --- | --- | --- | --- | --- | --- | --- | --- | --- | --- | --- | --- | --- | --- |
| NCI-H1650 | 0.167 | 0.207 | 0.184 | 0.208 | 0.19 | 0.827 | 0.928 | 0.973 | 0.966 | 1.01 | 0.46 | 0.424 | 0.416 | 0.445 | 0.482 |  |  |  |  |  |
| NCI-H1703 |  |  |  |  |  | 0.347 | 0.406 | 0.361 | 0.338 | 0.328 |  |  |  |  |  | 0.132 | 0.121 |  |  |  |
| NCI-H1792 | 0.295 | 0.24 | 0.21 | 0.229 | 0.217 |  |  |  |  |  |  |  |  |  |  | 0.185 | 0.262 | 0.312 | 0.312 | 0.304 |
| NCI-H2009 | 0.832 | 0.866 | 0.77 | 0.852 | 0.72 | 0.961 | 1.04 | 0.826 | 1.04 | 0.936 | 0.576 | 0.65 | 0.545 | 0.612 | 0.491 |  |  |  |  |  |
| NCI-H2023 | 0.309 | 0.269 | 0.413 | 0.266 | 0.219 | 0.503 | 0.404 | 0.424 | 0.358 | 0.376 | 0.273 | 0.203 | 0.235 | 0.235 | 0.225 |  |  |  |  |  |
| NCI-H2228 | 0.114 | 0.185 | 0.145 | 0.131 | 0.115 | 0.603 | 0.586 | 0.575 | 0.413 | 0.556 | 0.23 | 0.244 | 0.271 | 0.211 | 0.137 |  |  |  |  |  |
| SK-LU-1 | 0.183 | 0.147 | 0.174 | 0.164 | 0.168 | 0.41 | 0.438 | 0.449 | 0.432 | 0.469 | 0.285 | 0.262 | 0.24 | 0.241 | 0.289 |  |  |  |  |  |
| SK-MES-1 | 0.347 | 0.383 | 0.329 | 0.281 | 0.331 | 0.701 | 0.662 | 0.638 | 0.501 | 0.547 | 0.791 | 0.807 | 0.794 | 0.779 | 0.662 |  |  |  |  |  |
| SW 1573 | 0.172 | 0.181 | 0.359 | 0.215 | 0.216 | 0.584 | 0.647 | 0.589 | 0.58 | 0.52 | 0.16 | 0.172 | 0.13 | 0.157 | 0.132 |  |  |  |  |  |
| UMC-11 | 0.328 | 0.348 | 0.385 | 0.343 | 0.366 | 0.478 | 0.371 | 0.441 | 0.422 | 0.401 | 0.212 | 0.195 | 0.208 | 0.215 | 0.198 |  |  |  |  |  |

— the supplement of paper PMC10307832
